Key:
Format in all cases: cell-based, Pseudomonas aeruginosa
[1] = tested on: qsc132A&B (Unknown (B. pertusis)); assay: Acyl-HSL induction of β-galactosidase in qsc132A&B mutants; conditions: Class IV, 3OC12-HSL 2 μM, C4-HSL 5 μM
[2] = tested on: qsc137 (Asparagine synthetase); assay: Acyl-HSL induction of β-galactosidase in qsc137 mutant; conditions: qsc137, Class IV; 3OC12-HSL 2 μM, C4-HSL 5 μM
qsc115 = assay: Acyl-HSL induction of β-galactosidase in qsc115 mutant; conditions: qsc115, Class II; 3OC12-HSL 2 μM, C4-HSL 5 μM
qsc114 = assay: Acyl-HSL induction of β-galactosidase in qsc114 mutant; conditions: qsc114, Class II; 3OC12-HSL 2 μM, C4-HSL 5 μM
qsc107 = assay: Acyl-HSL induction of β-galactosidase in qsc107 mutant; conditions: qsc107, Class I; 3OC12-HSL 2 μM, C4-HSL 5 μM
[3] = tested on: qsc128 (Hydrogen cyanide synthase HcnB); conditions: qsc128, Class III; 3OC12-HSL 2 μM, C4-HSL 5 μM
qsc118 (RhlI) = assay: Acyl-HSL induction of β-galactosidase in qsc118 mutant; conditions: qsc118, Class III; 3OC12-HSL 2 μM, C4-HSL 5 μM
qsc131 (PhzC) = assay: Acyl-HSL induction of β-galactosidase in qsc131 mutant; conditions: qsc131, Class III; 3OC12-HSL 2 μM, C4-HSL 5 μM
qsc101 = assay: Acyl-HSL induction of β-galactosidase in qsc101 mutant; conditions: qsc101, Class I; 3OC12-HSL 2 μM, C4-HSL 5 μM
[4] = tested on: qsc120 (Chloramphenicol resistance); assay: Acyl-HSL induction of β-galactosidase in qsc120 mutant; conditions: qsc120, Class III; 3OC12-HSL 2 μM, C4-HSL 5 μM
[5] = tested on: qsc100 (Peptide synthetase); assay: Acyl-HSL induction of β-galactosidase in qsc100 mutant; conditions: qsc100, Class I; 3OC12-HSL 2 μM, C4-HSL 5 μM
qsc119 (RhlB) = assay: Acyl-HSL induction of β-galactosidase in qsc119 mutant; conditions: qsc119, Class III; 3OC12-HSL 2 μM, C4-HSL 5 μM
[6] = tested on: qsc109 (Bacitracin synthetase 3); assay: Acyl-HSL induction of β-galactosidase in qsc109 mutant; conditions: qsc109, Class II; 3OC12-HSL 2 μM, C4-HSL 5 μM
[7] = tested on: qsc112A&B (Aculeacin A acylase); assay: Acyl-HSL induction of β-galactosidase in qsc112A&B mutants; conditions: Class II, 3OC12-HSL 2 μM, C4-HSL 5 μM
qsc106A&B = assay: Acyl-HSL induction of β-galactosidase in qsc106A&B mutants; conditions: Class I, 3OC12-HSL 2 μM, C4-HSL 5 μM
[8] = tested on: qsc135 (Cytochrome C precursor); assay: Acyl-HSL induction of β-galactosidase in qsc135 mutant; conditions: qsc135, Class IV; 3OC12-HSL 2 μM, C4-HSL 5 μM
[9] = tested on: qsc110A&B (Pyoverdine synthetase D); assay: Acyl-HSL induction of β-galactosidase in qsc110A&B mutants; conditions: Class II, 3OC12-HSL 2 μM, C4-HSL 5 μM
[10] = tested on: qcs117 (ACP-like protein); assay: Acyl-HSL induction of β-galactosidase in qcs117 mutant; conditions: qcs117, Class III; 3OC12-HSL 2 μM, C4-HSL 5 μM
[11] = tested on: qsc125 (Zeaxanthin synthesis); assay: Acyl-HSL induction of β-galactosidase in qsc125 mutant; conditions: qsc125, Class III; 3OC12-HSL 2 μM, C4-HSL 5 μM
[12] = tested on: qsc123 (9-Cis retinol dehydrogenase); assay: Acyl-HSL induction of β-galactosidase in qsc123 mutant; conditions: qsc123, Class III; 3OC12-HSL 2 μM, C4-HSL 5 μM
[13] = tested on: qsc105 (FAD-binding protein); assay: Acyl-HSL induction of β-galactosidase in qsc105 mutant; conditions: qsc105, Class I; 3OC12-HSL 2 μM, C4-HSL 5 μM
[14] = tested on: qsc121 (3-Oxoacyl ACP synthase); assay: Acyl-HSL induction of β-galactosidase in qsc121 mutant; conditions: qsc121, Class III; 3OC12-HSL 2 μM, C4-HSL 5 μM
qsc138 = assay: Acyl-HSL induction of β-galactosidase in qsc138 mutant; conditions: qsc138, Class IV; 3OC12-HSL 2 μM, C4-HSL 5 μM
[15] = tested on: lasB-lacZ chromosomal fusion; assay: Acyl-HSL response of lasB-lacZ chromosomal fusion in P. aeruginosa PAO-MW1; conditions: late response
Description: E. coli and P. aeruginosa were routinely grown in Luria-Bertani (LB) broth or LB agar (Sambrook, et al. (1989) Molecular Cloning: a Laboratory Manual. (Cold Spring Harbor Laboratory, Cold Spring Harbor, N.Y.)), supplemented with antimicrobial agents when necessary. The antimicrobial agents were used at the following concentrations: HgCl2, 15 μg/ml in agar and 7.5 μg/ml in broth; nalidixic acid 20 μg/ml; carbenicillin, 300 μg/ml; tetracycline, 50 μg/ml for P. aeruginosa and 20 μg/ml for E. coli; and gentamicin, 100 μg/ml for P. aeruginosa and 15 μg/ml for E. coli. Synthetic acyl-HSL concentrations were 2 μM for 3OC12-HSL and 5 μM for C4-HSL, and 5-bromo4-chloro-3-indolyl-β-D-galactopyranoside (X-Gal) was used at 50 μg/ml.
A mutant strain, P. aeruginosa PAO-MW 10, which contains a lacZ reporter in the chromosomal lasB gene was constructed by introduction of pMW300 into PAO-MW1 by triparental mating as described above. Exconjugants resistant to gentamicin and sensitive to chloramphenicol were selected as potential recombinants.
Patterns of Acyl-HSL Induction of β-galactosidase Activity in qsc Mutants. The pattern of β-galactosidase expression was examined in response to acyl-HSLs in each of 47 qsc mutants identified in the initial screen. […] Growth was monitored as OD at 600 nm and β-galactosidase activity was measured in 0.1 ml samples taken at 0, 2, 5, and 9 hours after inoculation.

SMILES | Signal response (β-galactosidase activity with signal(s) divided by activity without added signals), maximum [1] | Signal response (β-galactosidase activity with signal(s) divided by activity without added signals), maximum [2] | Signal response (β-galactosidase activity with signal(s) divided by activity without added signals), maximum (qsc115) | Signal response (β-galactosidase activity with signal(s) divided by activity without added signals), maximum (qsc114) | Signal response (β-galactosidase activity with signal(s) divided by activity without added signals), maximum (qsc107) | Signal response (β-galactosidase activity with signal(s) divided by activity without added signals), maximum [3] | Signal response (β-galactosidase activity with signal(s) divided by activity without added signals), maximum (qsc118 (RhlI)) | Signal response (β-galactosidase activity with signal(s) divided by activity without added signals), maximum (qsc131 (PhzC)) | Signal response (β-galactosidase activity with signal(s) divided by activity without added signals), maximum (qsc101) | Signal response (β-galactosidase activity with signal(s) divided by activity without added signals), maximum [4] | Signal response (β-galactosidase activity with signal(s) divided by activity without added signals), maximum [5] | Signal response (β-galactosidase activity with signal(s) divided by activity without added signals), maximum (qsc119 (RhlB)) | Signal response (β-galactosidase activity with signal(s) divided by activity without added signals), maximum [6] | Signal response (β-galactosidase activity with signal(s) divided by activity without added signals), maximum [7] | Signal response (β-galactosidase activity with signal(s) divided by activity without added signals), maximum (qsc106A&B) | Signal response (β-galactosidase activity with signal(s) divided by activity without added signals), maximum [8] | Signal response (β-galactosidase activity with signal(s) divided by activity without added signals), maximum [9] | Signal response (β-galactosidase activity with signal(s) divided by activity without added signals), maximum [10] | Signal response (β-galactosidase activity with signal(s) divided by activity without added signals), maximum [11] | Signal response (β-galactosidase activity with signal(s) divided by activity without added signals), maximum [12] | also measured
CCCC(=O)N[C@H]1CCOC1=O [C4-HSL, butanoyl-HSL] | 1 | 1 | 1 | 1 | 2 | 12 | 14 | 168 | 1 | 7 | 3 | 7 | 1 | 1 | 1 | 1 | 1 | 22 | 65 | 28 | Signal response (β-galactosidase activity with signal(s) divided by activity without added signals), maximum [13]: 1; Signal response (β-galactosidase activity with signal(s) divided by activity without added signals), maximum [14]: 27; Signal response (β-galactosidase activity with signal(s) divided by activity without added signals), maximum (qsc138): 5
CCCCCCCCCC(=O)CC(=O)N[C@H]1CCOC1=O [3OC12-HSL, N-(3-oxododecanoyl) homoserine lactone] | 1 | 1 | 4 | 9 | 44 | 19 | 38 | 50 | 145 | 3 | 65 | 9 | 13 | 15 | 9 | 3 | 10 | 22 | 20 | 14 | Stimulation of lasB-lacZ fusion over background [15]: 3 fold; Signal response (β-galactosidase activity with signal(s) divided by activity without added signals), maximum [13]: 40; Signal response (β-galactosidase activity with signal(s) divided by activity without added signals), maximum [14]: 13; Signal response (β-galactosidase activity with signal(s) divided by activity without added signals), maximum (qsc138): 3

Source: patent publication US6855513B1 (priority 1999, dated 2005)
